Experiment [1] concerns testosterone-treated C57BL/6 mice. Briefly: Ratio of anagen-phase hair follicles in skin tissue (H&E), testosterone-treated animal model. It is filed as in vivo. The following applies: Anagen/(Catagen+Telogen); dorsal skin after 27-day experiment; 1 mg/kg Finasteride subcutaneous. As for the experimental part:
To determine whether the composition of the present disclosure inhibits the reduction of hair follicles, the ratio of anagen-phase hair follicles was measured in a testosterone-treated animal model following administration of BxC-HAe isolated in Example 2. Specifically, dorsal skin tissues from each mouse subjected to the 27-day experiment described in Example 8 were collected, embedded in paraffin blocks, and sectioned at a thickness of 5 μm. The tissue sections were then stained using H&E. Subsequently, for each group, randomly selected hair follicles from the dorsal skin of five mice were classified by morphology into anagen (growth phase), catagen (regression phase), and telogen (resting phase). The ratio of anagen hair follicles was calculated using the formula: Anagen/(Catagen+Telogen). The results were presented in FIGS. 20 and 21, and Table 18.

The next experiment has as its system β-catenin. In words: β-catenin immunofluorescence in skin tissue, testosterone-treated animal model. It is filed as in vivo, C57BL/6 mice. The following applies: dorsal skin after 27-day experiment; 1 mg/kg Finasteride; testosterone-untreated = 1. How it is done:
To determine whether the composition of the present disclosure modulates the expression of hair loss and regrowth-related factors, a testosterone-treated animal model was administered BxC-HAe isolated in Example 2, and the fluorescence intensity of cells stained with antibodies against androgen receptor (AR) and β-catenin was measured and compared.
Specifically, dorsal skin tissues from each mouse subjected to the 27-day experiment (described in Example 8) were harvested, embedded in paraffin blocks, and sectioned at a thickness of 5 μm, followed by immunofluorescent staining.
The primary antibodies used were rabbit anti-β-catenin (Cell Signaling #9562) and mouse anti-AR (Santa Cruz, sc-7305). The fluorophore-conjugated secondary antibodies were goat anti-rabbit IgG conjugated with Alexa Fluor 488 (Abcam, ab150077) and goat anti-mouse IgG conjugated with Cyanine5 (Invitrogen, a10524).
After completion of the antibody reactions, DAPI staining was performed, and fluorescence patterns were analyzed using a Nikon ECLIPSE Ti2 fluorescence microscope and NIS-Elements software. The results are shown in FIGS. 22-24, and in Tables 19 and 20.

Experiment [2] relates to testosterone-treated C57BL/6 mice. In words: Hair regrowth in testosterone-treated animal model. It is filed as in vivo. Conditions: Day 27; topical testosterone daily; 1 mg/kg Finasteride subcutaneous every other day; testosterone-untreated = 100. How it is done: To evaluate whether the composition of the present disclosure promotes hair regrowth, BxC-HAe isolated in Example 2 was administered to a testosterone-treated animal model, and changes in body weight and photographic observations were compared.
Specifically, six-week-old C57BL/6 mice were acclimated for two weeks under conditions of 25° C. and 50% humidity with ad libitum access to food and tap water. Eight-week-old mice were then used for the experiment.
On Day 0, initial depilation was performed using a hair clipper, followed by the application of Niklin (II-dong Pharmaceutical) for 90 seconds for secondary depilation. The area was then rinsed three times with lukewarm water.
In the testosterone-treated group, starting on Day 1, 100 μL of 0.5% (w/w) testosterone dissolved in 50% ethanol was topically applied daily to the depilated dorsal region of each mouse.
Starting from the point when hair regrowth began in the testosterone-untreated group, body weight was measured twice weekly, and photographs were taken once weekly.
Specifically, hair regrowth area and depilated area were measured using ImageJ software, and the ratio of hair regrowth area to depilated area was calculated and analyzed statistically.
The experiment was conducted until Day 27, the point at which hair regrowth was completed in the testosterone-untreated group. […]

`CC(C)(C)NC(=O)[C@H]1CC[C@H]2[C@@H]3CC[C@H]4NC(=O)C=C[C@]4(C)[C@H]3CC[C@]12C` [Finasteride]: the “Percentage of hair follicles in growth phase (%)” value in experiment [1] is on record as 1.29%. Besides, the “Fluorescence intensity (β-catenin)” value in the experiment on β-catenin amounted to 1.05. For the same compound, the “Hair growth area (%)” value in experiment [2] worked out at 68.1%.
